Tests used:
[1] = target: SARS-CoV-2 Main Protease (SARS-CoV-2) (UniProt P0DTD1)
[2] = target: SARS-CoV-2 Main Protease (SARS-CoV-2) (UniProt P0DTD1); remark: listed apart in the source
Experimental: Briefly, compounds were seeded into assay-ready plates (Greiner 384PP, cat# 781280) using an ECHO 650T dispenser and DMSO was back-filled for a uniform concentration in assay plates (DMSO concentration < 1%, final volume = 500 nL.). […] After a quick centrifugation step (1000 rpm, 15 s) the plate is incubated for 15 min at room temperature. […] After centrifugation (1000 rpm, 14 s) the reaction is incubated for 10 min (11-mer) or 5 min (37-mer) at room temperature before quenching with 10 % formic acid. The reactions are analysed with MS using RapidFire (RF) 365 high-throughput sampling robot (Agilent) connected to an iFunnel Agilent 6550 accurate mass quadrupole time-of-flight (Q-TOF) mass spectrometer using electrospray. […] Dose response curves uses an 11-point range of 100--0.0017 µM inhibitor concentrations. RapidFire integrator software (Agilent) was used to extract the charged states from the total ion chromatogram data followed by peak integration. For the 11-mer peptide the m/z (+1) charge states of both the substrate (1191.67 Da) and cleaved N-terminal product TSAVLQ (617.34 Da) were used and the 37-mer peptide the m/z (+2) charge states of the substrate (3960.94 Da) and m/z (+1) of the cleaved C-terminal product [sequence] (1125.57 Da). Percentage conversion (product peak integral / (product peak integral + substrate peak integral))*100) and percentage inhibitions were calculated and normalised against DMSO control with deduction of any background signal in Microsoft Excel. IC50s were calculated using Levenberg–Marquardt algorithm used to fit a restrained Hill equation to the dose-response data with both GraphPad PRISM and CDD.

Structure (SMILES)	relative solubility at 20 uM	relative solubility at 100 uM	inhibition ([1]; 50.0 µM) [%]	inhibition ([2]; 20.0 µM) [%]	inhibition ([2]; 50.0 µM) [%]	inhibition ([1]; 20.0 µM) [%]	IC50 [2] [nM]	IC50 [1] [nM]
O=C(Cc1cccnc1Br)Nc1cccc(OCCn2cncn2)c1	1	1	-21.7	0	0			
C=CC(=O)N(c1ccc(N(C)C)c(C)c1)C(C(=O)Nc1ccc(Br)cc1)c1cccnc1 (stereo unspecified)	0.84	0.74	3.43	0		3.45		
CNS(=O)(=O)c1ccc(C(C)NC(=O)NC(C)(C)C)cc1 (stereo unspecified)	1	1	-0.25	0	0	-0.809		
COc1ccc2[nH]cc(CCNS(C)(=O)=O)c2c1	0.92	0.86	-4.39	0		-4.19		
C[C@H]1CN(Cc2ccccc2)CC[C@@H]1NC(=O)C(=O)NCc1ccccc1CN1CCCC[C@@H]1C (stereo in doubt)	1	0.99	1.34		0	-2.35		
COc1cc(CNC(=O)Cc2ncc[nH]2)c2ccccc2n1	1	1	-23.1	0	15.6			
C=CC(=O)N(c1ccc(C(C)(C)C)cc1)C(C(=O)NC1CC1)c1cccnc1 (stereo unspecified)	1.01	1	33	8.67	33.3	25.4		
Cc1cc(-c2nc3ccccc3[nH]2)ccc1O	0.99	1	-36.8		-3.73	-10.3		
Cc1ccccc1NC1CCN(c2ccc(S(N)(=O)=O)cc2)CC1	0.91	0.91	7.22	25.2	37.6	4.98		
Cc1nnc(CC(=O)Nc2cccnc2)s1	1	0.99	-0.0294	-1.82	0	-1.16		
Cc1cccc(NC(=O)C(C#N)C(=O)C2CC2)c1 (stereo unspecified)	0.99	0.99	5.88	0.422	0.517			
O=C1Nc2ccc(Br)cc2C1=O	1	0.99	-1.05		66.1	-2.12	30300	
COCC1CCN(c2ccc(S(N)(=O)=O)cc2)CC1	0.99	1	-23.1	22.3	44			
Cc1nnn(C)c1NC(=O)Cc1cccc(Cl)c1	1	1	-12.3		5.47	-9.24		
CCC(=O)Nc1cccc(OC2CC(=O)N2)c1 (stereo unspecified)	1.01	1.01	-6.23		0	-4.99		
O=C(NC1CCCCC1NC(=O)C1CCCCC1)c1ccncc1 (stereo unspecified)	1	1	-20.6	0		-14.4		
O=C(Cc1ccc(Cl)s1)Nc1cccnc1	1	1	11.5	0		0.922		
CS(=O)(=O)Nc1cccc(C(=O)OCC(=O)Nc2cccc(N3CCCC3=O)c2)c1	0.98	0.99	3.7		0	5.16		
C=CC(=O)N(c1ccc(C(F)(F)F)cc1)C(C(=O)NCCc1cccc(F)c1)c1cncc(C)c1 (stereo unspecified)	0.91	0.73	63		91.6	38.8	7720	
CCc1ccccc1Nc1nc(N)nc(CSc2nnc3ccccn23)n1	0.99	0.95	46.6	-0.805	3.37	20.9		
C=CC(=O)N(c1ccc(C(C)(C)C)cc1)C(C(=O)Nc1ccc(F)cc1C)c1cccnc1 (stereo unspecified)	0.96	0.91	13.9		1.37	5.61		
CCOC(=O)c1nc(S(C)(=O)=O)ncc1Cl	0.99	0.99	98.5		100	96.9	1040	
O=S(=O)(NC1(Cc2ccccc2)CCOCC1)c1cccnc1	1	1	3.06		11.6	-34.8		
Cc1ccncc1NC(=O)Cc1cccc(OC(F)(F)F)c1	0.98	0.98	-22.5		12.6	-3.16		
N#Cc1ccccc1S(=O)(=O)N1CCN(C(=O)c2cc(=O)[nH]c3cc(F)ccc23)CC1	0.94	0.95	52.4		0	1.1		
Cc1cc(CC(=O)Nc2cnccc2C)[nH]n1	1	1	0.404		4.87	-4.28		

Structure (SMILES)	relative solubility at 20 uM	relative solubility at 100 uM	inhibition ([1]; 50.0 µM) [%]	inhibition ([2]; 20.0 µM) [%]	inhibition ([2]; 50.0 µM) [%]	inhibition ([1]; 20.0 µM) [%]	IC50 [2] [nM]	IC50 [1] [nM]
CC(C)[C@@H](C#N)NS(=O)(=O)c1ccc(CF)cc1 (stereo in doubt)	1	1	-14	1.55	22.1			
C=CC(=O)N1CCC(N(Cc2ccccc2C#N)C2CCC(O)CC2)CC1 (stereo unspecified)	0.99	0.99	-8.67		0	-64		
O=C(Nc1nnc(-c2ccccn2)o1)C1CCN(S(=O)(=O)c2ccc(F)cc2)CC1	0.95	0.96	-71		0	3.87		
O=C(c1cc(=O)[nH]c2ccccc12)N1CCN(S(=O)(=O)c2ccccc2)CC1	0.98	0.97	40.7		3.07	16.1		
COc1cccc2c1OCC(NC(=O)c1cc(=O)[nH]c3ccc(F)cc13)C2 (stereo unspecified)	0.96	0.81	19		11	2.25		
CCS(=O)(=O)N1CCC(C(=O)Nc2cc(Cl)ccc2O)CC1	1	1	-2.7		0	-1.05		
NS(=O)(=O)CCc1ccccc1CN1CCN(C(=O)CCl)CC1	1	1	103		100	101	834	
O=C(CCl)N1CCN(S(=O)(=O)c2c(F)cccc2F)CC1	0.96	0.88	104	98.6	99.2	98.7	2620	
C=CC(=O)N(c1ccc(C(C)(C)C)cc1)C(C(=O)Nc1c(C)cccc1CC)c1cccnc1 (stereo unspecified)	0.98	0.69	-3.74	0	0			
O=C(CCl)N1CCN(C(c2ccccc2)c2ccccc2)CC1	-0.2	0.01	108	100	100		386	
N#Cc1cc(Cl)cc(NC(=O)Nc2cccnc2)c1	0.99	0.88	43.9	6.78	36.5	23		
C=CC(=O)N(c1ccc(C(C)(C)CC)cc1)C(C(=O)Nc1ccccc1Br)c1cccnc1 (stereo unspecified)	1	1	-11.5	0	8.03			
CCN(CC1COc2ccccc2O1)C(=O)c1cc(=O)[nH]c2ccc(Cl)cc12 (stereo unspecified)	0.95	0.89	2.69		0	8.72		
COc1ccc2[nH]cc(CCNC(C)=O)c2c1	1	0.99	-0.962	0		1.37		
O=C(Cc1cccnc1Cl)Nc1cccc(OCCc2ccccc2)c1	0.81	0.27	6.9	0	5.03	1.54		
O=C(Cc1c[nH]c2ncccc12)NCc1ccc(Cl)cc1	1	0.95	3.45	0		2.99		
N#Cc1ccc(CNC(=O)Cc2c[nH]c3ncccc23)cc1	1	0.99	1.71	1.12		2.44		
O=C(NCc1coc2ccccc12)C1CCc2nnc(-c3ccc(O)cc3)n2C1 (stereo unspecified)	0.89	0.94	2.5		55.3	-9.94		
O=C(NCCOc1ccccc1)c1cc(=O)[nH]c2ccccc12	1	1	54.6		3.05	12.7		
COc1cccc(NC(=O)Nc2cccc(C#N)c2)c1	0.96	0.94	9.79	0	2.48	5.11		
C=CC(=O)N(c1ccc(C(C)(C)C)cc1)C(C(=O)NC)c1cccnc1 (stereo unspecified)	1.01	0.99	69.7	57.4	100	42.1	17000	
COc1ccccc1OCCNC(=O)c1cc(=O)[nH]c2cc(F)ccc12	0.88	0.66	51.7		9.64	-6.6		
CCCSCC(=O)C(C#N)C(=O)Nc1ccccc1F (stereo unspecified)	1	1	-9.47	0.68	2.12			
Cc1ccncc1NC(=O)Cc1ccc2[nH]ccc2c1	1	1	-2.33		0	2.86		
CN(CC1COc2ccccc2O1)C(=O)c1cc(=O)[nH]c2ccc(F)cc12 (stereo unspecified)	0.99	0.99	1.67		0	-4.21		
CC(C(=O)Nc1cccc(OC2CC(=O)N2)c1)c1cnccn1 (stereo unspecified)	1	1	17	0	0			

Structure (SMILES)	relative solubility at 20 uM	relative solubility at 100 uM	inhibition ([1]; 50.0 µM) [%]	inhibition ([2]; 20.0 µM) [%]	inhibition ([2]; 50.0 µM) [%]	inhibition ([1]; 20.0 µM) [%]	IC50 [2] [nM]	IC50 [1] [nM]
C=CC(=O)N(c1ccc(C(C)(C)C)cc1)C(C(=O)NC1CCOCC1)c1cccnc1 (stereo unspecified)	0.99	1	0.668	0.841	31.1	9.01		
Cc1ccc(NCc2cc(NC(=O)OC(C)(C)C)ccc2Br)cn1	0.9	0.7	9.52		35.9	-3.3		
Cc1ncncc1NC(=O)C(c1cccc(Cl)c1)C(C)C (stereo unspecified)	1	0.99	20.6		46.5	3.52		
CCCN(CC1COc2ccccc2O1)C(=O)c1cc(=O)[nH]c2ccc(Cl)cc12 (stereo unspecified)	0.98	0.89	-15.6		0	-8.21		
C=CC(=O)N(C1CCCC(C(C)C)CC1)C(C(=O)NC(C)(C)C)c1cccnc1 (stereo unspecified)	0.99	0.95	8.24	0		-1.08		
C=CC(=O)N(c1ccc(C(C)(C)C)cc1)C(C(=O)Nc1ccc(OC)cc1OC)c1cccnc1 (stereo unspecified)	0.98	0.84	41.6	5.03	45.9	48.9		
O=C1Nc2cc(Br)ccc2C1=O	1	1.01	-4.62		23.8	-5.86		
O=C(CCl)N1CCN(C(c2ccccc2)C2CCCCC2)CC1 (stereo unspecified)	0.98	0.78	98.1		95.6	95.8	644	4130
C=CC(=O)N(c1ccc(S(F)(F)(F)(F)F)cc1)C(C(=O)Nc1ccc(OC)cc1)c1cccnc1 (stereo unspecified)	0.83	0.71	30.6	10.4		15.7		
CC(C(=O)Nc1cnccc1C)=C1CC1	1	1	-8.02		0	2.11		
Cc1nnc(CNC(=O)C2CCOc3ccc(Cl)cc32)n1C1CC1 (stereo unspecified)	1	1	0.282		0	6.91		
O=C(Cc1c[nH]c2ncccc12)NCc1ccc(Cl)cn1	1	1	4.16	0		1.55		
O=C(CCl)N1CCCC(c2nc(-c3cccnc3)nc3ccccc23)C1 (stereo unspecified)	0.9	0.89	31.8		100	7.84		
C=CC(=O)N(c1ccc(SC)cc1)C(C(=O)Nc1ccc(Cl)cc1)c1cccnc1 (stereo unspecified)	0.81	0.64	32.3	9.4		16.9		
Cc1ccncc1NC(=O)CCc1ccc(F)cc1	1	1	5.92		6.51	1.95		
N#Cc1cc(CN2CCN(C(=O)CCl)CC2)c2ccccc2c1	0.85	0.79	93.1	97.6		83.6	1160	
Cc1nnc(NC(=O)Nc2cccnc2)s1	1	0.99	7.32	4.62	8.86	1.19		
Cc1nnc(NC(=O)Cc2cccc(Cl)c2F)s1	0.99	0.68	-14.8		0	1.02		
Cc1cc(C)cc(NC(=O)Cc2cnn(C)c2C)c1	1	1.01	-5.28		0	-12.1		
Cc1coc(NC(=O)Nc2cccnc2)n1	1	1	8.86	2.76	8.52	2.91		
Cc1cccc(NC(=O)Cn2cncc2C)n1	1	1.01	-3.38		0	-1.3		
C=CC(=O)N(c1ccc2ncsc2c1)C(C(=O)Nc1c(C)cccc1CC)c1cccnc1 (stereo unspecified)	0.97	0.97	10.7	0		7.67		
Cc1ccncc1NC(=O)Cn1ccc2ccc(Cl)cc21	0.99	0.98	27		77.4	30.6	20000	
C=CC(=O)N(c1ccc(C(C)(C)C)cc1)C(C(=O)NC(C)(C)C)c1cncc(C(C)(F)F)c1 (stereo unspecified)	0.99	0.96	-15.5	0	0	-11.5		

From the COVID Moonshot data (paper PMC11187573), “Identification of SARS-CoV-2 Mpro inhibitors through deep reinforcement learning for de novo drug design and computational chemistry approaches” (RSC Medicinal Chemistry, 2024)
